The results in this text go back to patent publication US20160002247A1, “8-SUBSTITUTED IMIDAZOPYRIMIDINONE DERIVATIVE HAVING AUTOTAXIN INHIBITORY ACTIVITY” (THE UNIVERSITY OF TOKYO, priority 2013, published 2016).

For this test, the target named is T1, Human autotaxin enzyme (Homo sapiens, UniProt Q13822).
T1 construct: purchased R&D System
Kind of test: Evaluation of autotaxin inhibitor, Method C (Test Example 3): 18:0 Lyso PC, choline assay, Resorufin fluorescence. It counts as biochemical. To be noted: Assay Method C (Test Example 3), human autotaxin, 18:0 Lyso PC substrate; read-out: Inhibitory Activity (autotaxin enzyme inhibitory activity, IC50 class). Summed up:
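Choline-coupled fluorescence readout (20 min, resorufin at 531/598 nm) followed a 2 h room-temperature reaction of human autotaxin with 18:0 Lyso PC substrate (added as 200 μM solution) in pH 7.5 Tris buffer containing MgCl2 and Triton X-100. Percent inhibition scaled to no-compound (0%) and no-enzyme (100%) wells and plotted versus concentration.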
In general, IC50 refers to the concentration that gives 50% inhibition. In the case of `CCCCCn1c(-c2ccc(C(=O)NC)cc2)cc(=O)n2cc(-c3ccc(Cl)cc3)nc12` [Compound 495], the IC50 was in the range of 10 to 100 nM.

With `CCCCCn1c(-c2ccc(C(=O)NCC(=O)N(C)C)cc2)cc(=O)n2cc(-c3ccc(Cl)cc3)nc12` [Compound 496], the half-inhibitory concentration (IC50) fell in the range of 10 to 100 nM. For `CCCCCn1c(-c2ccc(C(=O)NC3(CO)CCC3)cc2)cc(=O)n2cc(-c3ccc(Cl)cc3)nc12` [Compound 497] the value was 10 to 100 nM; for `CCCCCn1c(-c2ccc(C(=O)N3CCN(S(C)(=O)=O)CC3)cc2)cc(=O)n2cc(-c3ccc(Cl)cc3)nc12` [Compound 498], 10 to 100 nM; for `CCCCCn1c(-c2ccc(C(=O)NCCS(N)(=O)=O)cc2)cc(=O)n2cc(-c3ccc(Cl)cc3)nc12` [Compound 499], 10 to 100 nM. As for `CCCCCn1c(-c2ccc(C(=O)NCC(C)=O)cc2)cc(=O)n2cc(-c3ccc(Cl)cc3)nc12` [Compound 500], the IC50 fell in the range of 10 to 100 nM.

On to `CCCCCn1c(-c2ccc(C(=O)NCCS(=O)(=O)N3CCOCC3)cc2)cc(=O)n2cc(-c3ccc(Cl)cc3)nc12` [Compound 501], for which the IC50 was in the range of 10 to 100 nM.

As for `CCCCCn1c(-c2ccc(C(=O)NC3CCOC3=O)cc2)cc(=O)n2cc(-c3ccc(Cl)cc3)nc12` (stereo not shown) [Compound 502], the IC50 was 10 to 100 nM. In the case of `CCCCCn1c(-c2ccc(C(=O)N3C[C@@H]4COC(=O)[C@@H]4C3)cc2)cc(=O)n2cc(-c3ccc(Cl)cc3)nc12` [Compound 503] it was 10 to 100 nM; in that of `CCCCCn1c(-c2ccc(C(=O)NC[C@@H](O)CO)cc2)cc(=O)n2cc(-c3ccc(Cl)cc3)nc12` [Compound 504], 10 to 100 nM.

As for `CCCCCn1c(-c2ccc(C(=O)NCCCn3ccnc3)cc2)cc(=O)n2cc(-c3ccc(Cl)cc3)nc12` [Compound 505], the half-maximal inhibitory concentration (IC50) is less than 10 nM. For `CCCCCn1c(-c2ccc(C(=O)NCc3ccco3)cc2)cc(=O)n2cc(-c3ccc(Cl)cc3)nc12` [Compound 506] the value was 10 to 100 nM; for `CCCCCn1c(-c2ccc(C(=O)NCc3ccccn3)cc2)cc(=O)n2cc(-c3ccc(Cl)cc3)nc12` [Compound 507], 10 to 100 nM. For `CCCCCn1c(-c2ccc(C(=O)NCCc3ccccn3)cc2)cc(=O)n2cc(-c3ccc(Cl)cc3)nc12` [Compound 508] the value was 10 to 100 nM. In the case of `CCCCCn1c(-c2ccc(C(=O)NCc3ccc(N4CCOCC4)cc3)cc2)cc(=O)n2cc(-c3ccc(Cl)cc3)nc12` [Compound 509] it was 10 to 100 nM. `CCCCCn1c(-c2ccc(C(=O)NC3CN4CCC3CC4)cc2)cc(=O)n2cc(-c3ccc(Cl)cc3)nc12` (stereo not shown) [Compound 510]: the IC50 is less than 10 nM. With `CCCCCn1c(-c2ccc(C(=O)NCCc3cncn3C)cc2)cc(=O)n2cc(-c3ccc(Cl)cc3)nc12` [Compound 511], the IC50 lay within 10 to 100 nM.

As to `CCCCCn1c(-c2ccc(C(=O)NCCc3ccc(S(C)(=O)=O)cc3)cc2)cc(=O)n2cc(-c3ccc(Cl)cc3)nc12` [Compound 512], the IC50 was less than 10 nM.

`CCCCCn1c(-c2ccc(C(=O)NCCS(=O)(=O)N3CCCC3)cc2)cc(=O)n2cc(-c3ccc(Cl)cc3)nc12` [Compound 513]: the IC50 lay in the range of 10 to 100 nM. In the case of `CCCCCn1c(-c2ccc(C(=O)NCCn3ccnc3)cc2)cc(=O)n2cc(-c3ccc(Cl)cc3)nc12` [Compound 514] it was less than 10 nM; in that of `CCCCCn1c(-c2ccc(C(=O)NCCN3CCSCC3)cc2)cc(=O)n2cc(-c3ccc(Cl)cc3)nc12` [Compound 515], 10 to 100 nM. In the case of `CCCCCn1c(-c2ccc(C(=O)NCCN3CCNC3=O)cc2)cc(=O)n2cc(-c3ccc(Cl)cc3)nc12` [Compound 516] it was 10 to 100 nM; in that of `CCCCCn1c(-c2ccc(C(=O)NCCC(=O)N3CCOCC3)cc2)cc(=O)n2cc(-c3ccc(Cl)cc3)nc12` [Compound 517], 10 to 100 nM. In the case of `CCCCCn1c(-c2ccc(C(=O)NCc3ccc([N+](=O)[O-])cc3)cc2)cc(=O)n2cc(-c3ccc(Cl)cc3)nc12` [Compound 518] it was 100 to 1000 nM. `CCCCCn1c(-c2ccc(C(=O)NCc3ccc(S(C)(=O)=O)cc3)cc2)cc(=O)n2cc(-c3ccc(Cl)cc3)nc12` [Compound 519]: the IC50 lay in the range of 10 to 100 nM. In the case of `CCCCCn1c(-c2ccc(C(=O)NCCCn3cc(-c4cccnc4)cn3)cc2)cc(=O)n2cc(-c3ccc(Cl)cc3)nc12` [Compound 520], the IC50 was in the range of 10 to 100 nM. For `CCCCCn1c(-c2ccc(C(=O)NCc3ccc(S(N)(=O)=O)cc3)cc2)cc(=O)n2cc(-c3ccc(Cl)cc3)nc12` [Compound 521] the value was 10 to 100 nM; for `CCCCCn1c(-c2ccc(C(=O)NCCNC)cc2)cc(=O)n2cc(-c3ccc(Cl)cc3)nc12` [Compound 522], 10 to 100 nM; for `CCCCCn1c(-c2ccc(C(=O)NCCc3c[nH]cn3)cc2)cc(=O)n2cc(-c3ccc(Cl)cc3)nc12` [Compound 523], 10 to 100 nM. In the case of `CCCCCn1c(-c2ccc(C(=O)NCCNC3CCS(=O)(=O)C3)cc2)cc(=O)n2cc(-c3ccc(Cl)cc3)nc12` (stereo not shown) [Compound 524] it was 10 to 100 nM; in that of `CCCCCn1c(-c2ccc(C(=O)NCc3ncc[nH]3)cc2)cc(=O)n2cc(-c3ccc(Cl)cc3)nc12` [Compound 525], 10 to 100 nM; in that of `CCCCCn1c(-c2ccccn2)cc(=O)n2cc(-c3ccc(Cl)cc3)nc12` [Compound 528], 100 to 1000 nM. With `CCCCCn1c(-c2ccc(C(=O)OC)cc2)cc(=O)n2cc(-c3ccc(Cl)cc3)nc12` [Compound 529], the IC50 lay in the range of 100 to 1000 nM.

With `CCCCCn1c(-c2cnc(C#N)nc2)cc(=O)n2cc(-c3ccc(Cl)cc3)nc12` [Compound 530], the IC50 was in the range of 10 to 100 nM. In the case of `CCCCCn1c(-c2cnc(CNC(=O)[C@H](O)CO)nc2)cc(=O)n2cc(-c3ccc(Cl)cc3)nc12` [Compound 531] it was less than 10 nM; in that of `CCCCCn1c(-c2cnc(C(=O)OC)nc2)cc(=O)n2cc(-c3ccc(Cl)cc3)nc12` [Compound 532], 10 to 100 nM; in that of `CCCCCn1c(-c2cnc(C(=O)O)nc2)cc(=O)n2cc(-c3ccc(Cl)cc3)nc12` [Compound 533], less than 10 nM.

Turning to `CCCCCn1c(-c2cnc(C(=O)NCCC(=O)OC)nc2)cc(=O)n2cc(-c3ccc(Cl)cc3)nc12` [Compound 534], the IC50 is less than 10 nM. In the case of `CCCCCn1c(-c2cnc(C(=O)NCCN3CC4(COC4)C3)nc2)cc(=O)n2cc(-c3ccc(Cl)cc3)nc12` [Compound 535] it was less than 10 nM; in that of `CCCCCn1c(-c2cnc(C(=O)NCCC(=O)O)nc2)cc(=O)n2cc(-c3ccc(Cl)cc3)nc12` [Compound 536], less than 10 nM. `CCCCCn1c(OC2CNC2)cc(=O)n2cc(-c3ccc(Cl)cc3)nc12` [Compound 537]: the IC50 lay in the range of 10 to 100 nM. As for `CCCCCn1c(OC2CCNCC2)cc(=O)n2cc(-c3ccc(Cl)cc3)nc12` [Compound 538], the IC50 fell in the range of 100 to 1000 nM. In the case of `CCCCCn1c(OC2CCN(C(=O)CN3CCOCC3)CC2)cc(=O)n2cc(-c3ccc(Cl)cc3)nc12` [Compound 539] it was 10 to 100 nM. For `CCCCCn1c(OC2CCN(CC(=O)O)CC2)cc(=O)n2cc(-c3ccc(Cl)cc3)nc12` [Compound 540] the value was 10 to 100 nM. `CCCCCn1c(C2=CCN(C(=O)OC(C)(C)C)CC2)cc(=O)n2cc(-c3ccc(Cl)cc3)nc12` [Compound 541]: the IC50 was in the range of 100 to 1000 nM. For `CCCCCn1c(OC2CCN(CCN3CCOCC3)CC2)cc(=O)n2cc(-c3ccc(Cl)cc3)nc12` [Compound 542] the value was 100 to 1000 nM.
